Values of other authors as cited in US20030049320A1, “Novel in-situ forming controlled release microcarrier delivery system” (priority 2000, published 2003).

Details: intravenously as a solution, reported in the literature

## CC(=O)O[C@H]1C(=O)[C@@]2(C)[C@H]([C@H](OC(=O)c3ccccc3)[C@]3(O)C[C@H](OC(=O)[C@H](O)[C@@H](NC(=O)c4ccccc4)c4ccccc4)C(C)=C1C3(C)C)[C@]1(OC(C)=O)CO[C@@H]1C[C@@H]2O [paclitaxel]
  Plasma elimination half-life of paclitaxel: 1.1 h
